Source: patent EP1019392B1, “TRICYCLIC AMIDES USEFUL FOR INHIBITION OF G-PROTEIN FUNCTION AND FOR TREATMENT OF PROLIFERATIVE DISEASES” (SCHERING CORPORATION, priority 1995, dated 1997)
pIC50: −log10 of the molar value. Structures can show the parent of a compound that is named as a salt. Where two headings read alike, the source gives them in different places.

Key:
[1] = test system: Ras-CVLS processing in COS monkey kidney cells; experiment: COS cell assay: inhibition of Ras-CVLS processing (Western blot); format: cell-based
Excerpt: • 1. In vitro enzyme assays: Inhibition of farnesyl protein transferase and geranylgeranyl protein transferase. Both farnesyl protein transferase (FPT) and geranylgeranyl protein transferase (GGPT) I were partially purified from rat brain by ammonium sulfate fractionation followed by Q-Sepharose (Pharmacia, Inc.) anion exchange chromatography essentially as described by Yokoyama et al (Yokoyama, K., et al., (1991), A protein geranylgeranyltransferase from bovine brain: Implications for protein prenylation specificity, Proc. Natl. Acad. Sci USA 88: 5302-5306, the disclosure of which is incorporated herein by reference thereto). Human farnesyl protein transferase was also expressed in E. coli, using cDNA clones encoding both the a and b subunits. The methods used were similar to those published (Omer, C. et al., (1993), Characterization of recombinant human farnesyl protein transferase: Cloning, expression, farnesyl diphosphate binding, and functional homology with yeast prenyl-protein transferases, Biochemistry 32:5167-5176). Human farnesyl protein transferase was partially-purified from the soluble protein fraction of E. coli as described above. […] Two forms of val^12-Ha-Ras protein were prepared as substrates for these enzymes, differing in their carboxy terminal sequence. One form terminated in cysteine-valine-leucine-serine (Ras-CVLS) the other in cystein-valine-leucine-leucine (Ras-CVLL). Ras-CVLS is a substrate for the farnesyl protein transferase while Ras-CVLL is a substrate for geranylgeranyl protein transferase I. The cDNAs encoding these proteins were constructed so that the proteins contain an amino-terminal extension of 6 histidine residues. Both proteins were expressed in Escherichia coli and purified using metal chelate affinity chromatography. The radiolabelled isoprenyl pyrophosphate substrates, [^3H]farnesyl pyrophosphate and [^3H]geranylgeranyl pyrophosphate, were purchased from DuPont/New England Nuclear. Several methods for measuring farnesyl protein transferase activity have been described (Reiss et al 1990, Cell 62: 81; Schaber et al 1990, J. Biol. Chem. 265: 14701; Manne et al 1990, PNAS 87: 7541; and Barbacid & Manne 1993, U.S. Patent No. 5,185,248). […] The reaction was allowed to proceed for 30 minutes at room temperature and then stopped with 0.5 ml of 4% sodium dodecyl sulfate (SDS) followed by 0.5 ml of cold 30% TCA. Samples were allowed to sit on ice for 45 minutes and precipitated Ras protein was then collected on GF/C filter paper mats using a Brandel cell harvester. Filter mats were washed once with 6% TCA, 2% SDS and radioactivity was measured in a Wallac 1204 Betaplate BS liquid scintillation counter. Percent inhibition was calculated relative to the DMSO vehicle control. The geranylgeranyl protein transferase I assay was essentially identical to the farnesyl protein transferase assay described above, with two exceptions: [^3H]geranylgeranylpyrophosphate replaced farnesyl pyrophosphate as the isoprenoid donor and Ras-CVLL was the protein acceptor. […] Cell-Based Assay: Transient expression of val^12-Ha-Ras-CVLS and val^12-Ha-Ras-CVLL in COS monkey kidney cells: Effect of farnesyl protein transferase inhibitors on Ras processing and on disordered cell growth induced by transforming Ras. COS monkey kidney cells were transfected by electroporation with the plasmid pSV-SPORT (Gibco/BRL) containing a cDNA insert encoding either Ras-CVLS or Ras-CVLL, leading to transient overexpression of a Ras substrate for either farnesyl protein transferase or geranylgeranyl protein transferase I, respectively (see above). Following electroporation, cells were plated into 6-well tissue culture dishes containing 1.5 ml of Dulbecco's-modified Eagle's media (GIBCO, Inc.) supplemented with 10% fetal calf serum and the appropriate farnesyl protein transferase inhibitors. After 24 hours, media was removed and fresh media containing the appropriate drugs was re-added.

[2] = target: T1, farnesyl protein transferase (FPT) (Rattus norvegicus, UniProt Q02293+Q04631); experiment: In vitro enzyme assay: inhibition of farnesyl protein transferase (transfer of [3H]farnesyl to Ras-CVLS); format: biochemical; conditions: partially purified rat brain FPT, Ras-CVLS
T1 construct: were partially purified from rat brain by ammonium sulfate fractionation followed by Q-Sepharose; from tissue; host or cells: rat brain
Description: • 1. In vitro enzyme assays: Inhibition of farnesyl protein transferase and geranylgeranyl protein transferase. […] Human farnesyl protein transferase was also expressed in E. coli, using cDNA clones encoding both the a and b subunits. […] Human farnesyl protein transferase was partially-purified from the soluble protein fraction of E. coli as described above. […] Two forms of val^12-Ha-Ras protein were prepared as substrates for these enzymes, differing in their carboxy terminal sequence. One form terminated in cysteine-valine-leucine-serine (Ras-CVLS) the other in cystein-valine-leucine-leucine (Ras-CVLL). Ras-CVLS is a substrate for the farnesyl protein transferase while Ras-CVLL is a substrate for geranylgeranyl protein transferase I. The cDNAs encoding these proteins were constructed so that the proteins contain an amino-terminal extension of 6 histidine residues. Both proteins were expressed in Escherichia coli and purified using metal chelate affinity chromatography. The radiolabelled isoprenyl pyrophosphate substrates, [^3H]farnesyl pyrophosphate and [^3H]geranylgeranyl pyrophosphate, were purchased from DuPont/New England Nuclear. […] The reaction was allowed to proceed for 30 minutes at room temperature and then stopped with 0.5 ml of 4% sodium dodecyl sulfate (SDS) followed by 0.5 ml of cold 30% TCA. Samples were allowed to sit on ice for 45 minutes and precipitated Ras protein was then collected on GF/C filter paper mats using a Brandel cell harvester. […] Percent inhibition was calculated relative to the DMSO vehicle control. The geranylgeranyl protein transferase I assay was essentially identical to the farnesyl protein transferase assay described above, with two exceptions: [^3H]geranylgeranylpyrophosphate replaced farnesyl pyrophosphate as the isoprenoid donor and Ras-CVLL was the protein acceptor. […] Cell-Based Assay: Transient expression of val^12-Ha-Ras-CVLS and val^12-Ha-Ras-CVLL in COS monkey kidney cells: Effect of farnesyl protein transferase inhibitors on Ras processing and on disordered cell growth induced by transforming Ras. COS monkey kidney cells were transfected by electroporation with the plasmid pSV-SPORT (Gibco/BRL) containing a cDNA insert encoding either Ras-CVLS or Ras-CVLL, leading to transient overexpression of a Ras substrate for either farnesyl protein transferase or geranylgeranyl protein transferase I, respectively (see above). Following electroporation, cells were plated into 6-well tissue culture dishes containing 1.5 ml of Dulbecco's-modified Eagle's media (GIBCO, Inc.) supplemented with 10% fetal calf serum and the appropriate farnesyl protein transferase inhibitors. After 24 hours, media was removed and fresh media containing the appropriate drugs was re-added. 48 hours after electroporation cells were examined under the microscope to monitor disordered cell growth induced by transforming Ras. Cells expressing transforming Ras become more rounded and refractile and overgrow the monolayer, reminiscent of the transformed phenotype. Cells were then photographed, washed twice with 1 ml of cold phosphate-buffered saline (PBS) and removed from the dish by scraping with a rubber policeman into 1 ml of a buffer containing 25 mM Tris, pH 8.0; 1 mM ethylenediamine tetraacetic acid; 1 mM phenylmethylsulfonyl fluoride; […] leupeptin; and 0.1 mM pepstatin. Cells were lysed by homogenization and cell debris was removed by centrifugation at 2000 x g for 10 min. Cellular protein was precipitated by addition of ice-cold trichloroacetic acid and redissolved in […] of SDS-electrophoresis sample buffer. […] Proteins resolved on the gels were electroblotted onto nitrocellulose membranes for immunodetection. […] After washing, membranes were incubated for one hour at room temperature with a 1:5000 dilution of secondary antibody, rabbit anti-rat IgG conjugated to horseradish peroxidase, in PBS containing 1% fetal calf serum.

[3] = test system: Normal human HEPM fibroblasts; experiment: Cell Mat Assay, normal cell mat; format: cell-based; conditions: normal monolayer
[4] = test system: DLD-1 (human colon carcinoma cells, ATCC # CCL 221); experiment: In Vivo Anti-Tumor Studies, subcutaneous DLD-1 tumors; parameters: species or system athymic nu/nu female mice; conditions: Mus musculus, DLD-1, po, QID, 4 weeks, range over the listed compounds; for inhibition in vivo at 10 mg/kg: 10 mg/kg p.o.; for inhibition in vivo at 50 mg/kg: 50 mg/kg p.o.
Excerpt: Tumor cells (5 X 10^5 to 8 X 10^6) of DLD-1 (human colon carcinoma cells, ATCC # CCL 221) are innolculated subcutaneously into the flank of 5-6 week o;d athymic nu/nu female mice.

[5] = test system: T24-BAG4 human bladder carcinoma cells expressing an activated H-ras gene; experiment: Cell Mat Assay, T24 tumor cells; format: cell-based; conditions: read-out: Tumor (T-24) IC50
[6] = test system: DLD-1-BAG human colon carcinoma cells expressing as activated K-ras gene; experiment: Cell Mat Assay, DLD-1 tumor cells; format: cell-based
[7] = test system: SW620-BAG human colon carcinoma cells expressing an activated K-ras gene; experiment: Cell Mat Assay, SW620 tumor cells; format: cell-based
[8] = Homo sapiens, SW-620, Mat assay

Structure (SMILES): O=C(Cc1cc[n+]([O-])cc1)N1CCC(=C2c3ncc(Br)cc3CCc3cc(Cl)cc(Br)c32)CC1 (single isomer, unassigned) [Example 7A]
- pIC50 [1]: < 6.00
- pIC50 ([2]; FPT IC50, Table 1): < 7.00
- pIC50 [3]: < 4.60
- inhibition in vivo at 10 mg/kg [4]: 7 to 50%
- inhibition in vivo at 50 mg/kg [4]: 35.4 to 83%
- pIC50 [5]: > 5.80

Structure (SMILES): O=C(Cc1cc[n+]([O-])cc1)N1CCN(C2c3ccc(Cl)c(Br)c3CCc3cc(Br)cnc32)CC1 (centres unmarked) [5 • HCl salt]
- pIC50 ([1]; Primates, COS): 8.00
- pIC50 ([2]; Table 1, read-out: FPT IC50): 8.42

Structure (SMILES): NC(=O)N1CCC(CC(=O)N2CCC(C3c4ncc(Br)cc4CCc4cc(Cl)cc(Br)c43)CC2)CC1 (centres unmarked) [Example 10B]
- pIC50 ([6]; Mat assay): 5.80
- pIC50 [3]: < 4.60
- pIC50 [5]: > 5.80
- pIC50 ([7]; Mat assay): 5.80

Structure (SMILES): O=C(Cc1cc[n+]([O-])cc1)N1CCN([C@@H]2c3ncc(Br)cc3CCc3cc(Cl)cc(Br)c32)CC1 [Example 11B]
- pIC50 ([6]; Mat assay): 5.10
- pIC50 ([2]; Table 1, read-out: FPT IC50): < 7.02
- pIC50 [3]: < 4.60
- pIC50 [5]: > 5.80
- pIC50 ([7]; Mat assay): 4.74

Structure (SMILES): NC(=O)N1CCC(CC(=O)N2CCN([C@@H]3c4ccc(Cl)cc4CCc4cc(Br)cnc43)CC2)CC1 [Example 17]
- pIC50 ([1]; Primates, COS): 6.46
- pIC50 ([6]; Homo sapiens, DLD-1, Mat assay): 5.20
- pIC50 ([2]; Table 1, read-out: FPT IC50): 7.37
- pIC50 ([3]; Homo sapiens, Fibroblast): < 4.60
- pIC50 ([5]; Homo sapiens): 5.80

Structure (SMILES): O=C(Cc1cc[n+]([O-])cc1)N1CCN(C2c3ncc(Br)cc3CCc3cc(Cl)cc(F)c32)CC1 (centres unmarked) [Example 21]
- pIC50 ([1]; Primates, COS): 6.38
- pIC50 ([2]; Table 1, read-out: FPT IC50): 8.08

Structure (SMILES): O=C(Cc1cc[n+]([O-])cc1)N1CCN(C2c3ncc(Br)cc3CCc3cccc(Cl)c32)CC1 (single isomer, unassigned) [Example 20]
- pIC50 ([1]; Primates, COS): ~7.52

Structure (SMILES): O=C(Cc1cc[n+]([O-])cc1)N1CCC(C2c3ncc(Br)cc3CCc3cc(Cl)cc(Br)c32)CC1 (centres unmarked) [Example 9B]
- pIC50 ([2]; FPT IC50, Table 1): 8.52

Structure (SMILES): O=C(Cc1cc[n+]([O-])cc1)N1CCC(C2c3ccc(Cl)c(Br)c3CCc3cc(Br)cnc32)CC1 (centres unmarked) [14A • HCl salt]
- pIC50 [1]: 7.82
- pIC50 ([2]; Table 1, read-out: FPT IC50): > 8.51

Structure (SMILES): O=C(Cc1cc[n+]([O-])cc1)N1CCN(C2c3ncc(Br)cc3CCc3cc(Cl)cc(Br)c32)CC1 (racemic) [Example 11]
- pIC50 ([1]; Primates, COS): > 6.60
- pIC50 ([2]; Table 1, read-out: FPT IC50): 8.70

Structure (SMILES): NC(=O)N1CCC(CC(=O)N2CCC(C3c4ccc(Cl)c(Br)c4CCc4cc(Br)cnc43)CC2)CC1 (single isomer, unassigned) [Example 13A]
- pIC50 [1]: < 6.00
- pIC50 ([6]; Homo sapiens, DLD-1, Mat assay): 5.20
- pIC50 ([7]; Mat assay): 5.20

Structure (SMILES): NC(=O)N1CCC(CC(=O)N2CCC(C3c4ccc(Cl)c(Br)c4CCc4cc(Br)cnc43)CC2)CC1 (single isomer, unassigned) [Example 13B]
- pIC50 ([5]; Homo sapiens): > 5.80
- pIC50 [7, 8]: < 5.51

Structure (SMILES): NC(=O)N1CCC(CC(=O)N2CCC(C3c4ccc(Cl)cc4C=Cc4cc(Br)cnc43)CC2)CC1 (centres unmarked) [Example 1]
- pIC50 ([2]; Table 1, read-out: FPT IC50): > 7.47
- pIC50 ([3]; Homo sapiens, Fibroblast): < 4.60
- inhibition in vivo at 10 mg/kg [4]: 7 to 50%
- inhibition in vivo at 50 mg/kg [4]: 35.4 to 83%
- pIC50 ([5]; Homo sapiens): > 5.80

Structure (SMILES): O=C(Cc1cc[n+]([O-])cc1)N1CCC(C2c3ccc(Cl)c(Br)c3CCc3cc(Br)cnc32)CC1 (centres unmarked) [Example 14B]
- pIC50 ([2]; FPT IC50, Table 1): 8.30

Structure (SMILES): O=C(Cc1cc[n+]([O-])cc1)N1CCC(C2c3ncc(Br)cc3CCc3cc(Cl)cc(Br)c32)CC1 (single isomer, unassigned) [Example 9A]
- pIC50 ([1]; Primates, COS): 6.07
- pIC50 ([5]; Homo sapiens): > 5.80

Structure (SMILES): NC(=O)N1CCC(CC(=O)N2CCC([C@@H]3c4ncc(Br)cc4CCc4cc(Cl)cc(Br)c43)CC2)CC1 [Example 10A]
- pIC50 [3]: 5.10
- pIC50 [5]: > 5.80
- pIC50 ([7]; Mat assay): 5.80

Structure (SMILES): NC(=O)N1CCC(CC(=O)N2CCN([C@H]3c4ccc(Cl)c(Br)c4CCc4cc(Br)cnc43)CC2)CC1 [Example 6]
- pIC50 ([1]; Primates, COS): 7.40
- pIC50 ([6]; Homo sapiens, DLD-1, Mat assay): 5.40
- pIC50 ([2]; Table 1, read-out: FPT IC50): 8.51
- inhibition in vivo at 10 mg/kg [4]: 7 to 50%
- inhibition in vivo at 50 mg/kg [4]: 35.4 to 83%
- pIC50 ([5]; Homo sapiens): > 5.80
- pIC50 [7, 8]: 5.20
